Measurements published in patent US20100216661A1, “Diagnostic Assay” (priority 2007, published 2010).

Legend:
[1] = tested on: anti-RhD monoclonal antibody T10 (LHM76/55); assay: Biopanning of phage-peptide libraries with anti-RhD T10; format: binding, Human; settings: phage-peptide libraries; three rounds of panning
From the text: (§1) Three different phage libraries from New England Biolabs. (Ph.D. 7 and Ph.D. 12 displaying linear 7- and 12-mer peptides, respectively and Ph.D. C7C displaying 7-mer peptides constrained by a disulphide bridge at their termini) and a linear 15mer library (kindly provided by Prof. George P. Smith, University of Missouri) were used in biopanning experiments with 10 different monoclonal antibodies and a polyclonal preparation (Table 1).
(§2) For each target antibody/library combination, a separate well of a 96-well Immulon 4 flat-bottomed ELISA plate (Thermo Labsystems) was coated with 5 μg of antibody in 150 μl ELISA coating buffer (15 mM Na2CO3, 35 mM NaHCO3, pH9.6). Plates were sealed and incubated at 4° C. overnight. Unbound antibody was discarded and 350 μl of blocking buffer (0.1M NaHCO3/3% skimmed milk powder) was added to each well. Plates were sealed and incubated for 1 hour at 4° C. The blocking buffer was removed and the wells were washed six times with 300 μl TBS/0.1% Tween 20. Approximately 2×10^11 plaque forming units (pfu) in 100 μl TBS/0.1% Tween 20 were added to each well and the plates were incubated at room temperature for 1 hour. Wells were washed ten times with 300 μl TBS/0.1% Tween 20. Bound phage were eluted by incubation with 100 μl of 0.2M glycine-HCl/BSA, pH2.2 (1 mg/ml) for 10 minutes, then neutralised with 15 μl of 1M Tris-HCL (pH9.1). An aliquot of the Round 1 eluate was removed and titred. The remainder of the eluted phage were amplified by infection of E. coli ER2538 cells for 4.5 hours at 37° C. The cultures were centrifuged for 10 minutes at 10,000 rpm at 4° C. The supernatants were recovered, ⅙ volume PEG/NaCl (20% polyethylene glycol 8000; 2.5M NaCl) added, then incubated overnight at 4° C. The PEG-precipitated phage were centrifuged at 10,000 rpm for 15 minutes at 4° C. The supernatant was removed and the phage pellet resuspended in 200 μl TBS. Two further rounds of panning were undertaken and approximately 2×10^11 pfu of the Round 2 or Round 3 amplified eluates were used as input phage. Round 3 eluates were titrated but not amplified. Individual plaques were amplified and subjected to PCR amplification, prior to DNA sequence analysis. The specificity of peptide-antibody binding was subsequently determined using both phage ELISA and SPOTs techniques.

[2] = tested on: polyclonal anti-RhD preparation (Human Anti-D Ig); assay: SPOTs membrane hybridisation with polyclonal anti-RhD; format: binding; settings: FIG. 8; Spots 1-25 = RhD81-105; Spots 26-28 = RhD68, RhD71, RhD79; Spot 29 CPep75 and Spot 30 CPep76 negative controls
Experimental: (§3) The peptide mimotopes were synthesised by the SPOT method (Frank; 1992) using F-moc chemistry. The peptides were anchored to an amino-PEG derivatised cellulose membrane (Intavis AG) and synthesised as discrete spots. Synthesis was by stepwise elongation of the peptide chain from C-terminus to the N-terminus, by manual pipetting of the respective amino acids, according to the Sigma Genosys protocol. Incubation times were modified when using Intavis AG membranes. After addition of the final amino acid, the terminal residues and side chains of the peptides were deprotected and the membrane was washed with methanol; air dried and then stored at −20° C. prior to use.
A membrane was placed in a 50 ml Falcon tube and blocked overnight at 4° C. with gentle agitation in TBS/0.25% Tween 20/5% skimmed milk powder. A 2 μg/ml dilution of the primary (1°) antibody (monoclonal or polyclonal) was prepared in TBS/0.25% Tween20/5% skimmed milk powder before incubation with the membrane for 1 hour at room temperature on a spiral rotor. Following 4 washes, each for 5 minutes with 20 ml of TBS/0.25% Tween20, the membrane was incubated for 1 hour at room temperature with a 1/5000 dilution of the secondary (2°) antibody, prepared in TBS/0.25% Tween20/5% skimmed milk powder. Peroxidase labelled rabbit anti-mouse IgG (Sigma) was used for the detection of the murine anti-Fy^a (LM487) and anti-Fy^b (LM447) 1° antibodies and peroxidase labelled goat anti-human IgG (Pharmacia) for the detection of the human 1° antibodies. Following 4 washes, each for 5 minutes with 20 ml of TBS/0.25% Tween20, the membrane was blotted to remove excess fluid. Bound antibody was detected by chemiluminescence. ECL detection reagents (Amersham Biosciences) were mixed and overlaid on the membrane for 2 minutes. The chemiluminescent substrate was removed and the membrane blotted to remove excess fluid. Positive spots were visualised following exposure to Hyperfilm ECL (Amersham Biosciences) for a series of short incubation times (5 seconds to 10 minutes). […]

[3] = tested on: anti-RhE monoclonal antibody E0002 (NaTH110-1D6); assay: Biopanning of phage-peptide libraries with anti-RhE E0002; format: binding, Human; settings: IgM antibody
From the text: as §1
as §2, with “Two further rounds of panning were undertaken and approximately 2×10^11 pfu of the Round 2 or Round 3 amplified eluates were used as input phage. Round 3 eluates were titrated but not amplified. Individual plaques were amplified and subjected to PCR amplification, prior to DNA sequence analysis.” left out

[4] = tested on: anti-RhE monoclonal antibody E0002; assay: SPOTs membrane hybridisation with anti-RhE monoclonal E0002; format: binding, Human; settings: FIG. 9; 36 RhE peptide mimotopes; CPep75 (Spot 37), CPep76 (Spot 38) negative controls
Experimental: as §3
A membrane was placed in a 50 ml Falcon tube and blocked overnight at 4° C. with gentle agitation in TBS/0.25% Tween 20/5% skimmed milk powder. A 2 μg/ml dilution of the primary (1°) antibody (monoclonal or polyclonal) was prepared in TBS/0.25% Tween20/5% skimmed milk powder before incubation with the membrane for 1 hour at room temperature on a spiral rotor. Following 4 washes, each for 5 minutes with 20 ml of TBS/0.25% Tween20, the membrane was incubated for 1 hour at room temperature with a 1/5000 dilution of the secondary (2°) antibody, prepared in TBS/0.25% Tween20/5% skimmed milk powder. Peroxidase labelled rabbit anti-mouse IgG (Sigma) was used for the detection of the murine anti-Fy^a (LM487) and anti-Fy^b (LM447) 1° antibodies and peroxidase labelled goat anti-human IgG (Pharmacia) for the detection of the human 1° antibodies. Following 4 washes, each for 5 minutes with 20 ml of TBS/0.25% Tween20, the membrane was blotted to remove excess fluid. Bound antibody was detected by chemiluminescence. ECL detection reagents (Amersham Biosciences) were mixed and overlaid on the membrane for 2 minutes. The chemiluminescent substrate was removed and the membrane blotted to remove excess fluid. Positive spots were visualised following exposure to Hyperfilm ECL (Amersham Biosciences) for a series of short incubation times (5 seconds to 10 minutes).
The RhD, RhE and Rhe peptide mimotopes (see Tables 4 & 5) were synthesised by SPOTs and hybridisation of the membranes was undertaken with the appropriate antibodies (Table 1). FIGS. 7-10 show examples of peptide mimotopes reacting specifically with the antibody originally used in their selection.

[5] = tested on: anti-RhE monoclonal antibody E0001 (HIRO17); assay: Biopanning of phage-peptide libraries with anti-RhE E0001; format: binding, Human; settings: IgG1 antibody
From the text: as §1
(§4) For each target antibody/library combination, a separate well of a 96-well Immulon 4 flat-bottomed ELISA plate (Thermo Labsystems) was coated with 5 μg of antibody in 150 μl ELISA coating buffer (15 mM Na2CO3, 35 mM NaHCO3, pH9.6). Plates were sealed and incubated at 4° C. overnight. Unbound antibody was discarded and 350 μl of blocking buffer (0.1M NaHCO3/3% skimmed milk powder) was added to each well. Plates were sealed and incubated for 1 hour at 4° C. The blocking buffer was removed and the wells were washed six times with 300 μl TBS/0.1% Tween 20. Approximately 2×10^11 plaque forming units (pfu) in 100 μl TBS/0.1% Tween 20 were added to each well and the plates were incubated at room temperature for 1 hour. Wells were washed ten times with 300 μl TBS/0.1% Tween 20. […] The specificity of peptide-antibody binding was subsequently determined using both phage ELISA and SPOTs techniques.

[6] = tested on: anti-Fy^a monoclonal antibody (LM487); assay: SPOTs membrane hybridisation with anti-Fy^a antibody; format: binding, Murine; settings: FIG. 5; Spots 1-37 = Fya 1-37; Spots 38-40 = Fya17, Fya25, Fya35; Spot 41 Cpep75, 42 Cpep76, 43 CPep118, 44 Fyb1; membranes hybridised in parallel with both antibodies
Experimental: as §3
A membrane was placed in a 50 ml Falcon tube and blocked overnight at 4° C. with gentle agitation in TBS/0.25% Tween 20/5% skimmed milk powder. A 2 μg/ml dilution of the primary (1°) antibody (monoclonal or polyclonal) was prepared in TBS/0.25% Tween20/5% skimmed milk powder before incubation with the membrane for 1 hour at room temperature on a spiral rotor. Following 4 washes, each for 5 minutes with 20 ml of TBS/0.25% Tween20, the membrane was incubated for 1 hour at room temperature with a 1/5000 dilution of the secondary (2°) antibody, prepared in TBS/0.25% Tween20/5% skimmed milk powder. […] Bound antibody was detected by chemiluminescence. […]

[7] = tested on: anti-RhE monoclonal antibody E0003 (NaTH110-IH4); assay: Biopanning of phage-peptide libraries with anti-RhE E0003; format: binding, Human; settings: IgM antibody
From the text: as §1, §4

[8] = tested on: anti-Fy^a monoclonal antibody (LM487); assay: Biopanning of phage-peptide libraries with anti-Fy^a LM487; format: binding, Murine; settings: three rounds of panning
From the text: as §1, §4

| Substance | SPOTs binding of anti-RhE monoclonal antibody E0002 [4] | Selection by biopanning with anti-RhD monoclonal antibody T10 [1] | SPOTs recognition by polyclonal anti-RhD [2] | Selection by biopanning with anti-RhE antibody E0002 [3] | other results |
| --- | --- | --- | --- | --- | --- |
| RhD68: RhD peptide mimotope, Table 4 (LDTYWYREHFRR) |  | identified through biopanning | recognised |  |  |
| PDGDYGANLEAAAP [CPep118, 14-mer immunisation peptide used to generate the anti-Fy^a antibody, reference compound] |  |  |  |  | Reciprocal SPOTs hybridisation: binding of anti-Fy^a monoclonal antibody [6]: Fy^a-specificity |
| RhD79: RhD peptide mimotope, Table 4 (LPWYRH) |  | identified through biopanning | recognised |  |  |
| Fya20: Fya peptide mimotope, Table 3; contains sequence identical to the Fy^a polymorphism (GIAEDDYGALSW) |  |  |  |  | Selection by biopanning with anti-Fy^a monoclonal antibody LM487 [8]: bound |

Now from value to substance, other results behind:

| SPOTs binding of anti-RhE monoclonal antibody E0002 [4] | Substance | Selection by biopanning with anti-RhD monoclonal antibody T10 [1] | SPOTs recognition by polyclonal anti-RhD [2] | Selection by biopanning with anti-RhE antibody E0002 [3] | other results |
| --- | --- | --- | --- | --- | --- |
| Specific binding | RhE19: RhE peptide mimotope, Table 5 (SFQDALLSRWYS) |  |  | selected | Selection by biopanning with anti-RhE antibody E0001 [5]: selected |
| Specific binding | RhE18: RhE peptide mimotope, Table 5 (IPEEALRARFKT) |  |  | selected | Selection by biopanning with anti-RhE antibody E0003 [7]: selected |
